One data set relates to DOHH2 cells. In words: Cell proliferation assay in DOHH2 cells (MTS). The note with it: Homo sapiens, DOHH-2, inhibition of DOHH2 cell proliferation, 120 h incubation. It counts as cell-based. The method, then:
To investigate whether a compound is able to inhibit the activity of BTK in cells, a mechanism-based assay using DOHH2 (DSMZ catalog #: ACC47) cell was developed. In this assay, inhibition of BTK was detected by the inhibition of DOHH2 cells proliferation. Cells were collected and plated onto 96-well plates at the optimized cell density (5000 cells/well). Plates were incubated at 37° C., with 5% CO2 for 4h. Compounds were serially diluted and added to the plates with the final concentrations as 10000, 3333.3, 1111.1, 370.4, 123.5, 41.2, 13.7, 4.6 and 1.5 nM. Plates were incubated at 37° C., with 5% CO2 for 120 h. An aliquot of 20 μL MTS/100 μL medium mixture solution were added to each well and the plates were incubated for exactly 2 h. The reaction was stopped by adding 25 μL 10% SDS to each well. The absorbance was measured by a microplate reader at 490 nm and 650 nm (reference wavelength). IC50 was calculated using GraphPad Prism 5.0.

The nature of data set [1]: Pharmacokinetics in male Beagle dogs, single oral gavage. The format is in vivo. Here is the method: The purpose of this study was to determine the pharmacokinetics of Example 1 in male Beagle dogs (Supplied by Marshall Bioresources, Beijing, China).
Animals were administered with Example 1 and Reference Compound 1 by single oral gavage (PO) administration at 3 mg/kg and 5 mg/kg, respectively, which was formulated in 10% DMSO (Sigma, Batch #STBJ2353): 60% PEG400 (PanReac AppliChem, Batch #1480132): 30% water at 5 mg/mL as a solution. Blood samples were collected at predose, 0.083, 0.25, 0.5, 1, 2, 4, 8, 12 and 24 hours post-dose. Concentrations of Example 1 and Reference Compound 1 in plasma were determined by LC/MS/MS (LC: Waters; MS: API4000).

The target of the next data set is BTK (C481S) (Homo sapiens (Human), UniProt Q06187, C481S). Nature of the data set: Kinase assay of BTK (C481S), [33P]-ATP filter-binding, at Reaction Biology Corporation. The note with it: 10 μM ATP, 6 nM BTK (C481S), pEY substrate, 20 min pre-incubation, 120 min reaction. It counts as biochemical. Here is the method:
The kinase activity of BTK (C481S) was assayed at Reaction Biology Corporation. The substrate in the BTK (C481S) reaction, pEY (poly[Glu:Tyr] (4:1)) (Sigma, Cat. #P7244-250MG), was prepared in fresh reaction buffer (20 mM Hepes (pH 7.5), 10 mM MgCl2, 1 mM EGTA, 0.02% Brij35, 0.02 mg/ml BSA, 0.1 mM Na3VO4, 2 mM DTT, 1% DMSO). BTK(C481S) (SignalChem, Cat. #B10-12CH) was delivered into the substrate solution and mixed gently. The final concentrations of BTK (C481S) and the substrate in the reaction mixture were 6 nM and 0.2 mg/ml, respectively. Compounds were tested in 10-point concentration/response mode with 3-fold serial dilution steps starting at 1 μM.
Compounds in 100% DMSO were delivered into the kinase reaction mixture by acoustic liquid delivery technology (Echo550; nanoliter range) and incubated for 20 min at room temperature. 10 μM [^33P]-ATP (ATP: Sigma, Cat #: A7699; [^33P]-ATP: Hartmann Analytic, Cat #: SCF-301-12) was delivered into the reaction mixture to initiate the reaction. The mixture was incubated for 120 min at room temperature. Radioactivity was detected utilizing a proprietary filter-binding method. Kinase activity data were expressed as the percent remaining kinase activity in test samples compared to vehicle (DMSO) reactions. IC50 values were obtained using GraphPad Prism software.

Data set [2] in a line: Pharmacokinetics in male Sprague-Dawley rats, single oral gavage. The format is in vivo. The note with it: 5 mg/kg; for AUC(0-t) / half-life: rat, plasma. Here is the method: The purpose of this study was to determine the pharmacokinetics of Example 1 and Example 2 in male Sprague-Dawley rats (Supplied by Beijing Vital River Laboratory Animal Technology Co., Ltd.).
Animals were administered with Example 1 and Example 2 by single oral gavage (PO) administration at 5 mg/kg, respectively, which was formulated in 10% DMSO (Sigma, Batch #STBJ2353): 60% PEG400 (PanReac AppliChem, Batch #1480132): 30% water at 2 mg/mL as a solution. Blood samples were collected at predose, 0.083, 0.25, 0.5, 1, 2, 4, 8, 12 and 24 hours post-dose. Concentrations of Example 1 and Example 2 in plasma were determined by LC/MS/MS (LC: Waters UPLC; MS: API4000).

Chain of BTK (C481S) (Q06187 whole entry C481S): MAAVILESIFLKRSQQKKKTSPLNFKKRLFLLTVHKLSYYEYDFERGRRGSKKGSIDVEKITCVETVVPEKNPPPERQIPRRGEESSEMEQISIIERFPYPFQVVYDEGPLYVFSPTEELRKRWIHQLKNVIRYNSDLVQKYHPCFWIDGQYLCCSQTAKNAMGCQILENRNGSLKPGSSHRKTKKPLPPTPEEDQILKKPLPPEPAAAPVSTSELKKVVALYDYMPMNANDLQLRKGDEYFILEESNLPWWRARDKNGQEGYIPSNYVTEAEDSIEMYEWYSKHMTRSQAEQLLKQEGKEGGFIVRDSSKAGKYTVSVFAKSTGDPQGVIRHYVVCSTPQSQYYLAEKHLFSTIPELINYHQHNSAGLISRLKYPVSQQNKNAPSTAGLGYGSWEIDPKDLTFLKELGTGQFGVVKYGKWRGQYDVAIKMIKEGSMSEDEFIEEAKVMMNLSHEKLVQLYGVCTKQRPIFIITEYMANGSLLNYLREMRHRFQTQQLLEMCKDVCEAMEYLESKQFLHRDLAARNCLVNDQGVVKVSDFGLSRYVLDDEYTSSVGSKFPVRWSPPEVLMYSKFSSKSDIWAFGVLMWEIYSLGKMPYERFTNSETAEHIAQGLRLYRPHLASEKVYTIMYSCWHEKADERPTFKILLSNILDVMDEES

The IC50 is the midpoint of a concentration-inhibition curve. The low end stands for higher potency, the high end for lower potency. In the data set on DOHH2 cells, `O=C(c1ccc(Oc2c(F)cccc2F)cc1F)c1c[nH]c2ncc(F)c(N[C@@H]3CC[C@@H](CNS(=O)(=O)C4CC4)OC3)c12` [Example 8, N-(((2S,5R)-5-((3-(4-(2,6-difluorophenoxy)-2-fluorobenzoyl)-5-fluoro-1H-pyrrolo[2,3-b]pyridin-4-yl)amino)tetrahydro-2H-pyran-2-yl)methyl)cyclopropanesulfonamide] came in with an IC50 of 1 nM.
`CCOc1cnc2[nH]cc(C(=O)c3ccc(Oc4ccccc4F)cc3F)c2c1N[C@@H]1CC[C@@H](CO)OC1` [Reference Compound 1, (5-ethoxy-4-(((3R,6S)-6-(hydroxymethyl)tetrahydro-2H-pyran-3-yl)amino)-JH-pyrrolo[2,3-b]pyridin-3-yl)(2-fluoro-4-(2-fluorophenoxy)phenyl)methanone, reference compound] yielded a F in data set [1] (5 mg/kg) of 9.82%. Besides, in data set [1] (5 mg/kg, plasma), the AUClast is 200 ng·h/mL and the T1/2 came to 3.39 h.
As usually defined, the AUC(0-t) is exposure summed from dosing to a finite time, without extrapolation to infinity. A low value points to less exposure. Broadly, the half-life is the time needed for the level to fall by half in the phase considered. Low readings indicate rapid decline, high ones slow decline. As to `CS(=O)(=O)NC[C@@H]1CC[C@@H](Nc2c(F)cnc3[nH]cc(C(=O)c4ccc(Oc5c(F)cccc5F)cc4F)c23)CO1` [Example 1, N-(((2S,5R)-5-((3-(4-(2,6-difluorophenoxy)-2-fluorobenzoyl)-5-fluoro-1H-pyrrolo[2,3-b]pyridin-4-yl)amino)tetrahydro-2H-pyran-2-yl)methyl)methanesulfonamide], the values for the F in data set [1] (3 mg/kg) and in data set [2] were 26.0% and 24.9%, respectively. Also, the AUC(0-t) in data set [1] (dog, 3 mg/kg, plasma) is 3820 ng·h/mL; in data set [2], 4950 ng·h/mL. Also, the half-life in data set [1] (dog, 3 mg/kg, plasma) was 15.6 h; in data set [2] it was 3.69 h. For the same molecule, the IC50 on BTK (C481S) came to 1.5 nM; with DOHH2 cells, 1 nM.
`CCS(=O)(=O)NC[C@@H]1CC[C@@H](Nc2c(F)cnc3[nH]cc(C(=O)c4ccc(Oc5c(F)cccc5F)cc4F)c23)CO1` [Example 6, N-(((2S,5R)-5-((3-(4-(2,6-difluorophenoxy)-2-fluorobenzoyl)-5-fluoro-1H-pyrrolo[2,3-b]pyridin-4-yl)amino)tetrahydro-2H-pyran-2-yl)methyl)ethanesulfonamide]: the IC50 with DOHH2 cells was 1 nM.
At BTK (C481S), `CS(=O)(=O)NC[C@@H]1CC[C@@H](Nc2c(F)cnc3[nH]cc(C(=O)c4ccc(Oc5ccccc5F)cc4F)c23)CO1` [Example 2, N-(((2S,5R)-5-((5-fluoro-3-(2-fluoro-4-(2-fluorophenoxy)benzoyl)-1H-pyrrolo[2,3-b]pyridin-4-yl)amino)tetrahydro-2H-pyran-2-yl)methyl)methanesulfonamide] gave an IC50 of 0.66 nM. In addition, in data set [2], the F is given as 31%, the AUC(0-t) worked out at 8340 ng·h/mL and the half-life is 3.08 h. In the data set on DOHH2 cells, this molecule had an IC50 of 27 nM.
On to `CCS(=O)(=O)NC[C@@H]1CC[C@@H](Nc2c(F)cnc3[nH]cc(C(=O)c4ccc(Oc5ccccc5F)cc4F)c23)CO1` [Example 3, N-(((2S,5R)-5-((5-fluoro-3-(2-fluoro-4-(2-fluorophenoxy)benzoyl)-1H-pyrrolo[2,3-b]pyridin-4-yl)amino)tetrahydro-2H-pyran-2-yl)methyl)ethanesulfonamide], for which, in the data set with DOHH2 cells, the IC50 worked out at 1 nM.
